Like-named read-outs stand apart in the source and are kept apart here.
Legend:
[1] = molecular target: T1, HSV-1 helicase-primase (Human herpesvirus 1, UniProt P10189+P10236); assay: HSV-1 DNA-dependent ATPase assay (inhibition of HSV-1 helicase-primase); type: biochemical
T1 construct: made in house; host or cells: Sf21 insect cells triply infected with recombinant baculoviruses (UL5, UL8, UL52)
Outline: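 Holoenzyme (UL5/UL8/UL52) expressed in baculovirus-infected Sf21 cells and purified, used at 3 μg/mL with 4 mM ATP and 25 μM primed M13 ssDNA in HEPES pH 7.5, 5.5 mM MgCl2, 3.3% DMSO. Incubated 20 min at 34°. Released phosphate read by malachite green at 650 nm, and activity taken from net absorbance with versus without inhibitor.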

[2] = system: HSV-1 strain F or KOS; assay: Inhibition of herpes simplex virus (HSV-1) replication in cell culture (BHK-21 cells, glycoprotein C ELISA); type: cell-based
Outline: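 BHK-21 clone 13 cells infected with HSV-1 F or KOS at MOI 0.05 PFU/cell for 1 h at 37°, washed, then treated with compound in α-MEM/2% FBS for 24 h. Late glycoprotein C quantified by ELISA (mAb C11, HRP/OPD, 450 nm); EC50 from % inhibition.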

[3] = system: HCMV (strain AD169); assay: Inhibition of HCMV replication, ELISA assay (Hs-68 cells); type: cell-based, Human Cytomegalovirus (HCMV); conditions: read-out: ELISA CMV EC50
Method: C) Inhibition of Human Cytomegalovirus (HCMV) Replication
The effect of compounds on the replication of HCMV has been measured by using an ELISA-based assay (ELISA) and a plaque reduction assay (PRA).
Hs-68 cells (ATCC # CRL 1635) were seeded in 96 well microtiter plates at 10,000 cells/well in 100 μL of DMEM medium (Gibco Canada Inc.) supplemented with 10% fetal bovine serum (FBS, Gibco Canada Inc.). The plates were incubated for 3 days at 37° to allow the cells to reach 80-90% confluency prior to the assay.
The medium was removed from wells by aspiration. The cells then were infected at a multiplicity of infection (MOI) of 0.01 PFU/cell with 50 μL of HCMV (strain AD169, ATCC VR-538) in DMEM medium supplemented with 5% heat inactivated FBS (assay medium). The virus was allowed to adsorb to cells for 2 h at 37°. Following viral adsorption, the medium was removed from the wells by aspiration. The cells were washed twice with 200 μL of assay medium to remove unabsorbed virus. The cells were then incubated with or without 100 μL of appropriate concentrations of test reagent in assay medium. After 8 days of incubation at 37°, the extent of viral replication was determined by an ELISA assay which detects the late structural protein p28 of HCMV.
Eight days after infection, the medium was aspirated from the wells. Non-specific binding sites were blocked by adding 200 μL of phosphate buffered saline containing 1% (w/v) bovine serum albumin (blocking buffer) to each well and incubating the plates for 30 min at room temperature. After removal of the blocking buffer by aspiration, the cells were fixed with 100 μL of cold ethanol-acetone solution (95:5) per well. The plates were placed at -20° for 30 min. The plates were washed 4 times with phosphate buffered saline containing 0.05% (v/v) polyoxyethylene sorbitan monolaurate (Tween®). Thereafter, 100 μL of mAb UL99 (Advanced Biotechnologies Inc., #13-130-100) recognizing HCMV protein p28 was added to each wells and plates were incubated for 2 h at room temperature. The plates were washed four times with 200 μL of the above-noted phosphate buffered saline/Tween-20® solution. The cells were then incubated with 100 μL of sheep anti-mouse IgGγ horseradish peroxidase conjugated for 2 h at room temperature. The plates were then washed four times with 200 μL of above-noted phosphate buffered saline/Tween-20® solution. Thereafter, 100 μL of ortho phenylenediamine dihydrochloride (OPD, Gibco Canada Inc.) solution was added to each well and the plates were agitated on a microplate shaker for 30 min in the dark. Color development was monitored at 450 nm using a microplate spectrophotometer.
The SAS program was used to calculate the % inhibition of viral replication and to generate EC50 values.
The EC50 values obtained according to this assay method for certain thiazolylphenyl derivatives of this invention are listed in the following tables under the heading ELISA CMV.

[4] = Human alphaherpesvirus 1, BHK-21, Group 1 Table 3 entries
[5] = Human betaherpesvirus 5, AD169, Hs68, Group 1 Table 3 entries
[6] = Human alphaherpesvirus 1, BHK-21, Group 1 Table 1 entries
[7] = Human betaherpesvirus 5, AD169, Hs68, Group 1 Table 1 entries
[8] = Human alphaherpesvirus 1, BHK-21, Group 1 Table 5 entries
[9] = Human betaherpesvirus 5, AD169, Hs68, Group 1 Table 5 entries

T1 sequence (P10192 whole entry): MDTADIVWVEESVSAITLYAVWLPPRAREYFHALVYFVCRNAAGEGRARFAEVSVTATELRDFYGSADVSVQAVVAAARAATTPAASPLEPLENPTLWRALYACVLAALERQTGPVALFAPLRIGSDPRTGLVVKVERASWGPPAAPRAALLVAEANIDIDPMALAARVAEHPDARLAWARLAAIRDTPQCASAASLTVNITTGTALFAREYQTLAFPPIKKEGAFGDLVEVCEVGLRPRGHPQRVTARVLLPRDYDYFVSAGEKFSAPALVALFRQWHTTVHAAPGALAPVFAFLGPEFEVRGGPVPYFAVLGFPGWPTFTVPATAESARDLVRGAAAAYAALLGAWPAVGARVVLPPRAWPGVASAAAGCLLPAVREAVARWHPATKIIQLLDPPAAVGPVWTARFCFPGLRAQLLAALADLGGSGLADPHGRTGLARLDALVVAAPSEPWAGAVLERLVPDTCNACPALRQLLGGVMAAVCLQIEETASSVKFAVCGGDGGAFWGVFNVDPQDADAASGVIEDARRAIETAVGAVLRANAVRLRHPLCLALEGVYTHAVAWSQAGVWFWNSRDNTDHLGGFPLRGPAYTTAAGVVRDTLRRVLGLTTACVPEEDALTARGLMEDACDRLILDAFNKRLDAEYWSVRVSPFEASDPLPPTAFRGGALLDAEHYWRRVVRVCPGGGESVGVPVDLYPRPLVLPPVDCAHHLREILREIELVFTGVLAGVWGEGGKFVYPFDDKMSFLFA
T1 sequence (P10236 whole entry): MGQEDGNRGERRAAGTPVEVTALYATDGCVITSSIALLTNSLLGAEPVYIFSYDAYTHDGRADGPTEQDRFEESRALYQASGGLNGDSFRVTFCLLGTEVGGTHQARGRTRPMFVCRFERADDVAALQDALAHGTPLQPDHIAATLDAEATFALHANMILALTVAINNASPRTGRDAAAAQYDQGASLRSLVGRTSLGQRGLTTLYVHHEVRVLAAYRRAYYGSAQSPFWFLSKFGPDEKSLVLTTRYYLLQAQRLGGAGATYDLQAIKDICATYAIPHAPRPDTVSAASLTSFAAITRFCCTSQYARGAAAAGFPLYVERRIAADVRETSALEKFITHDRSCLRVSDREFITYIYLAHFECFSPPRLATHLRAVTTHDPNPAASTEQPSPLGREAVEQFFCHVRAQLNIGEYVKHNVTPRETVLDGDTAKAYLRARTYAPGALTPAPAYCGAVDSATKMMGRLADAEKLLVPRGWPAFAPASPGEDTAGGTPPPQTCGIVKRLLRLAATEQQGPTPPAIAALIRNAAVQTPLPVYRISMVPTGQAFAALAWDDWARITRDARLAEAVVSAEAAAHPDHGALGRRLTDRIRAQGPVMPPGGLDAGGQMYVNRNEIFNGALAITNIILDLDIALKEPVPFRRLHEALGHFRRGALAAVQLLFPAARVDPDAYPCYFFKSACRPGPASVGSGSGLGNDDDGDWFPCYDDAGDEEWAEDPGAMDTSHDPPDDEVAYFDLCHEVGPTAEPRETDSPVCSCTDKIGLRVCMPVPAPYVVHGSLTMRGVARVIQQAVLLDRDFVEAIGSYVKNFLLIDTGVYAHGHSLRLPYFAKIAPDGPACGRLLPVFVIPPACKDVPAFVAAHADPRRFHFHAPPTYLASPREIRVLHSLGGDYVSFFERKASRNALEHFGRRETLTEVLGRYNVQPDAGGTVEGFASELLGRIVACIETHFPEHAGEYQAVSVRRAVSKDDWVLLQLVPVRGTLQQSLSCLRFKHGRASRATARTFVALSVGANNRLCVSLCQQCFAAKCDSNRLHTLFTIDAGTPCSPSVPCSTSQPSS
T1 sequence (P10189 whole entry): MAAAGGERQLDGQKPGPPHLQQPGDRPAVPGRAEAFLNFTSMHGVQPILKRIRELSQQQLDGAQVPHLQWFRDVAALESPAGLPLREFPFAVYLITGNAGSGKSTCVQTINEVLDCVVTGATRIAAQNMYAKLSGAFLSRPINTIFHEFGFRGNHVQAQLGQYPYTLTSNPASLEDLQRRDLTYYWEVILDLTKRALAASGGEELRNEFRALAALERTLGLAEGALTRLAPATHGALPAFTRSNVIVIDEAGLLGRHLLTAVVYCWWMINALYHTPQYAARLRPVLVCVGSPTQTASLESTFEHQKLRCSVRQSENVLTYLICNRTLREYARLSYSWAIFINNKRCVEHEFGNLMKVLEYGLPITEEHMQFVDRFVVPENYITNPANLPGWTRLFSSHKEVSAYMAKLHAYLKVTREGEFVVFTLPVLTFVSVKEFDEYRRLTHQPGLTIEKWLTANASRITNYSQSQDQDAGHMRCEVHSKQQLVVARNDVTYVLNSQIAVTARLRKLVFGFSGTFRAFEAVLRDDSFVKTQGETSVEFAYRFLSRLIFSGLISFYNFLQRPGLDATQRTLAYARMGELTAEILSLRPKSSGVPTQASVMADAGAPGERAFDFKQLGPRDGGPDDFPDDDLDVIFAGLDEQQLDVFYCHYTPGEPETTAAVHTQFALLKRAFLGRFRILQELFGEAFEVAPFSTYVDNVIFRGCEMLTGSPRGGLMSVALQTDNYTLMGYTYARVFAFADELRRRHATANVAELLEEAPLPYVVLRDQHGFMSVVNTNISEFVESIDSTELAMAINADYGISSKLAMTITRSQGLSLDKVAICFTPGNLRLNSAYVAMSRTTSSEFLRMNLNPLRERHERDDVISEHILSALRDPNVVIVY

CN(C(=O)CN(Cc1ccccc1)C(=O)c1ccncc1)c1ccc(-c2csc(N)n2)cc1 [Example 2]
IC50 ([1]; Group 1 Table 3 entries): 1.5 µM | EC50 [2, 4]: 0.34 µM | EC50 [3, 5]: 78 µM

Nc1nc(-c2ccc(NC(=O)CNCCc3ccccc3)cc2)cs1 [Example 2]
IC50 ([1]; Group 1 Table 1 entries): 4.7 µM | EC50 [2, 6]: 6 µM | EC50 [3, 7]: 3.1 µM

CC(C)(C)OC(=O)N1CCC[C@H]1C(=O)Nc1ccc(-c2csc(N)n2)cc1 [Example 4]
IC50 ([1]; Group 1 Table 6 entries): 0.46 µM | EC50 ([2]; Human alphaherpesvirus 1, BHK-21, Group 1 Table 6 entries): 0.21 µM | EC50 ([3]; Human betaherpesvirus 5, AD169, Hs68, Group 1 Table 6 entries): > 64 µM

Cc1nc(-c2ccc(NC(=O)CN(Cc3ccccc3)C(=O)C3CCCCC3)cc2)cs1 [Example 4]
IC50 ([1]; Group 1 Table 3 entries): 0.19 µM | EC50 [2, 4]: 0.12 µM | EC50 [3, 5]: 12 µM

CN(C(=O)C1CCCCC1)[C@@H](Cc1ccccc1)C(=O)Nc1ccc(-c2csc(N)n2)cc1 [Example 5]
IC50 ([1]; Group 1 Table 5 entries): 0.22 µM | EC50 [2, 8]: 0.15 µM | EC50 [3, 9]: 9.5 µM

Nc1nc(-c2ccc(NC(=O)[C@@H](Cc3ccccc3)NCc3ccccc3)cc2)cs1 [Example 7]
IC50 ([1]; Group 1 Table 5 entries): 6.6 µM | EC50 [2, 8]: 2.1 µM | EC50 [3, 9]: < 9 µM

CNc1nc(-c2ccc(NC(=O)CN(Cc3ccccc3)C(=O)C3CCCCC3)cc2)cs1 [Example 8]
IC50 ([1]; Group 1 Table 3 entries): 0.05 µM | EC50 [2, 4]: 0.002 µM | EC50 [3, 5]: 9 µM

Nc1nc(-c2ccc(NC(=O)CNCC3CCCCC3)cc2)cs1 [Example 8]
IC50 ([1]; Group 1 Table 1 entries): 2.9 µM | EC50 [2, 6]: 8 µM | EC50 [3, 7]: 3.6 µM

CNc1nc(-c2ccc(NC(=O)CN(CC3CCCCC3)C(=O)c3cccnc3)cc2)cs1 [Example 9]
IC50 ([1]; Group 1 Table 3 entries): 10 µM | EC50 [2, 4]: 1.3 µM | EC50 [3, 5]: 5 µM

CNc1nc(-c2ccc(NC(=O)CN(Cc3ccccc3)C(=O)OC(C)(C)C)cc2)cs1 [Example 10]
IC50 ([1]; Group 1 Table 3 entries): 0.31 µM | EC50 [2, 4]: 0.008 µM | EC50 [3, 5]: 1.1 µM

CN(C)c1nc(-c2ccc(NC(=O)CNCc3ccccc3)cc2)cs1 [Example 12]
IC50 ([1]; Group 1 Table 3 entries): > 50 µM | EC50 [2, 4]: 21 µM | EC50 [3, 5]: > 79 µM

C[C@H](NCc1ccccc1)C(=O)Nc1ccc(-c2csc(N)n2)cc1 [Example 12]
IC50 ([1]; Group 1 Table 5 entries): 1.3 µM | EC50 [2, 8]: 0.82 µM | EC50 [3, 9]: 4.1 µM

CN(C)c1nc(-c2ccc(NC(=O)CNCC3CCCCC3)cc2)cs1 [Example 13]
IC50 ([1]; Group 1 Table 3 entries): > 50 µM | EC50 [2, 4]: > 4 µM | EC50 [3, 5]: 36 µM

C[C@@H](NCc1ccccc1)C(=O)Nc1ccc(-c2csc(N)n2)cc1 [Example 13]
IC50 ([1]; Group 1 Table 5 entries): 2 µM | EC50 [2, 8]: 2 µM | EC50 [3, 9]: 14 µM

Nc1nc(-c2ccc(NC(=O)CNCc3cccs3)cc2)cs1 [Example 13]
IC50 ([1]; Group 1 Table 1 entries): 3.8 µM | EC50 [2, 6]: 3.7 µM | EC50 [3, 7]: 8.3 µM

CN(C)c1nc(-c2ccc(NC(=O)CN(Cc3ccccc3)C(=O)c3ccncc3)cc2)cs1 [Example 14]
IC50 ([1]; Group 1 Table 3 entries): > 50 µM | EC50 [2, 4]: 0.5 µM | EC50 [3, 5]: 20 µM

C[C@@H](C(=O)Nc1ccc(-c2csc(N)n2)cc1)N(Cc1ccccc1)C(=O)C1CCCCC1 [Example 14]
IC50 ([1]; Group 1 Table 5 entries): 0.11 µM | EC50 [2, 8]: 0.009 µM | EC50 [3, 9]: 10 µM

Nc1nc(-c2ccc(NC(=O)CNCCN3CCOCC3)cc2)cs1 [Example 14]
IC50 ([1]; Group 1 Table 1 entries): 7.7 µM | EC50 [2, 6]: 3.2 µM | EC50 [3, 7]: 67 µM

C[C@H](C(=O)Nc1ccc(-c2csc(N)n2)cc1)N(Cc1ccccc1)C(=O)C1CCCCC1 [Example 15]
IC50 ([1]; Group 1 Table 5 entries): 0.041 µM | EC50 [2, 8]: 0.006 µM | EC50 [3, 9]: 3.2 µM

CN(C)c1nc(-c2ccc(NC(=O)CN(Cc3ccccc3)C(=O)OC(C)(C)C)cc2)cs1 [Example 16]
IC50 ([1]; Group 1 Table 3 entries): > 50 µM | EC50 [2, 4]: 0.009 µM | EC50 [3, 5]: 4.8 µM
